Laboratory results as given in publication PMC4578755, “Development of novel cellular histone-binding and chromatin-displacement assays for bromodomain drug discovery” (Epigenetics & Chromatin, 2015).

Target: T1, endogenous TRIM24 in OV90 cells (Homo sapiens, UniProt O15164)
T1 construct: non-transfected OV90 cells looking at endogenous TRIM24; endogenous in cells; host or cells: OV90
T1 sequence (O15164 1-1050): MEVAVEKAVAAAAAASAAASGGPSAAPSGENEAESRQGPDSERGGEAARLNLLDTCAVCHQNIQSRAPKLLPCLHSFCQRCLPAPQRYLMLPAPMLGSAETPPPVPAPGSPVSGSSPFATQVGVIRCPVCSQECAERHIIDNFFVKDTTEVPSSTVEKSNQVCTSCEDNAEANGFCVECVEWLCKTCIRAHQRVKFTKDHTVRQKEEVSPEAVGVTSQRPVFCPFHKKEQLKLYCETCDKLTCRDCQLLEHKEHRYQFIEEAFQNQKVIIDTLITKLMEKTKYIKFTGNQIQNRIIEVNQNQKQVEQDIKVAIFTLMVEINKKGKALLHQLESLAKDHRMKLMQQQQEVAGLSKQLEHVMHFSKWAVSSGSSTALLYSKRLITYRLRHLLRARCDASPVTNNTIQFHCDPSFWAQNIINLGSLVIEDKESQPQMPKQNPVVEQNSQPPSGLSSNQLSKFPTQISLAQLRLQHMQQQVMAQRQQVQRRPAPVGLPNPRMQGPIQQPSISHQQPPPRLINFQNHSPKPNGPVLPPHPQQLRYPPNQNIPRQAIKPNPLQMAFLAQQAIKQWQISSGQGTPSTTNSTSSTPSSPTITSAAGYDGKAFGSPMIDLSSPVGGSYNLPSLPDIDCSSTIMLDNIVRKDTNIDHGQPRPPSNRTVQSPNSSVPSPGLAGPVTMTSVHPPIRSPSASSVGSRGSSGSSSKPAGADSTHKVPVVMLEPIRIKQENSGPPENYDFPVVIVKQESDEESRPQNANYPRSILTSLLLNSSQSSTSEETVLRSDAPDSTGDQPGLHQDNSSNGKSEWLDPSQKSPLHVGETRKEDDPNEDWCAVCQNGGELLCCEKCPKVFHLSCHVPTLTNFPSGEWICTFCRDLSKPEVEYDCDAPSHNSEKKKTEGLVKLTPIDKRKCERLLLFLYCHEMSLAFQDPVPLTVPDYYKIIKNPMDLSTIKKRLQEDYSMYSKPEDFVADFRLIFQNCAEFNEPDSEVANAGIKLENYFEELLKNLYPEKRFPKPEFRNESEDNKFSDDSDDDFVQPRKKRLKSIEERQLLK
Experiment: In situ cell extraction with IF in OV90 cells
Format: cell-based
Experimental: OV90 or HeLa cells (20,000 cells/100 µL) were seeded into 96-well plates (Corning Costar #3603) using RPMI or DMEM medium, respectively, supplemented with 10 % FBS and grown overnight. Test agents were serially diluted in DMSO (with or without SAHA) to generate 10X master compound plates. From here, 11 µL was transferred into each well containing 100 µL of growth media followed by shaking on a rotation table (15 min, 300 rpm at RT) and incubation at 37 °C for 2 h. Plates were washed once with PBS (150 µL/well) and then with cold, freshly prepared Cytoskeleton (CSK) Buffer (10 mM PIPES, 300 mM Sucrose, 100 mM NaCl, 3 mM MgCl2; pH = 6.8). Immediately thereafter, soluble, non-chromatin-bound proteins were extracted by addition of cold CSK Buffer supplemented with 0.5 % Triton X-100 (150 µL per well) for 10 min at 4 °C followed by 4 % paraformaldehyde fixation (10 min at RT) (Additional file 1: Table S3).
Standard IF procedures were used. Briefly, cells were permeabilized (0.5 % Triton X-100 in PBS) for 15 min and incubated with blocking solution (DAKO #X0909) for 30 min. The following primary antibodies were used: goat anti-V5 (Bethyl #A190-119A) 1:200; mouse anti-FLAG (Sigma #F1804) 1:200; rabbit anti-BRD4 (Abcam #ab128874) 1:200; rabbit anti-TRIM24 (Proteintech #14208-1-AP) 1:400; rabbit anti-K3K23Ac (Cell Signaling #8848) 1:200, and mouse anti-histone H3 (Active Motif #39763) 1:4000. Alexa Fluor-conjugated secondary antibodies were from Invitrogen and Hoechst 33342 (Invitrogen, #H3570) was used for nuclei counterstaining (10 µg/ml). For each Alexa fluorochrome, images (4–10 fields per well; 20X magnifications) were acquired using the Operetta High-Content Screening System (PerkinElmer). Image analysis was performed in Harmony software (PerkinElmer) by selecting nuclei and cytoplasm in Hoechst channel. Gating for single cells of flat morphology was done based on nuclei area, roundness and intensity of Hoechst in the nucleus and in the cytoplasm. In every gated cell, the mean signal intensity value for each fluorochrome was calculated separately in nucleus and cytoplasm. The specific nuclear signal was estimated subtracting mean cytoplasmic value from nuclear; and average value was calculated using at least 1000 cells in each well.
Supplemental Table S3 (Zhan et al.)
Table S3. In Situ Cell Extraction Procedure (IF)
Step Parameter Solution Volume Time Temp (°C)
Seed cells DMEM supplemented with 10 % FBS 37°C,
2 SAHA treatment SAHA (50 µM) in DMEM with 10% FBS 12 µL 2h 37°C,
3 Prepare Master 100X final concentration in assay 30 µL […]
Image analysis: The analysis was performed in Harmony (PerkinElmer) software by selecting nuclei and cytoplasm in Hoechst 33342 channel . […] For each channel “mean nuclear signal“ was calculated as “mean […]

| Structure (SMILES) | Histone H3 protein levels (OV90, 10 µM, 2 h) | Chromatin binding of endogenous TRIM24 (OV90 cells) | Time to displacement of endogenous TRIM24 from chromatin (non-transfected OV90 cells) | Mean IF nuclei intensity of endogenous TRIM24 (OV90, SAHA treatment) |
| --- | --- | --- | --- | --- |
| Cc1nc(S(=O)(=O)Nc2cc3c(cc2Oc2cccc(OCC(C)C)c2)n(C)c(=O)n3C)cn1C [IACS-6558, N-{1,3-dimethyl-6-[3-(2-methylpropoxy)phenoxy]-2-oxo-2,3-dihydro-1H-1,3-benzodiazol-5-yl}-1,2-dimethyl-1H-imidazole-4-sulfonamide] | unchanged | readily reduced | ≤ 5 min |  |
| O=C(CCCCCCC(=O)Nc1ccccc1)NO [SAHA, Suberoylanilide Hydroxamic Acid] |  |  |  | did not change |
